# Paper PMC7156458, “Synthetic biology based construction of biological activity-related library of fungal decalin-containing diterpenoid pyrones” (Nature Communications, 2020)
# Read-outs that look alike come from different tables or passages of the source.
# Tests used:
# [1] = system: human immunodeficiency virus-1 (HIV-1); experiment: anti-HIV MAGI assay; assay type: cell-based; details: Human immunodeficiency virus 1, MAGI, anti-HIV
# Excerpt: (§1) We examined the inhibitory activities of DDPs against various species of bacteria (both gram-negative and gram-positive bacteria), fungi and viruses. […] In contrast, preliminary screening of the DDPs for anti-viral agents with hepatitis B virus (HBV), measles virus (MV), Epstein-Barr virus (EBV), herpes simplex virus (HSV) and human immunodeficiency virus-1 (HIV-1) indicated their selective inhibition of HIV.
# MAGI cells = experiment: cytotoxicity in the anti-HIV assay (CC50); assay type: cell-based; details: single determinations
# Excerpt: as §1
# Policy information about cell lines […]
# HeLa-CD4-LTR/ !-galactosidase (MAGI) cells provided by Dr. J. Overbaugh through the NIH AIDS Research and Reference […]
# MAGI cells were authenticated by the NIH.
# Mycoplasma contamination All the cell lines tested negative for mycoplasma contamination.
# Commonly misidentified lines No commonly mis-identified cell lines. […]
# MCF-7 cells = experiment: cell cytotoxic effects against MCF-7 cells (72 h), A490; assay type: cell-based, human
# [2] = cytotoxicity in Drosophila DL1 cells; assay type: cell-based; details: Drosophila, DL1 cells (embryonic macrophage-derived), DL1 cells
# Protocol: (§2) We screened the DDPs on the Drosophila assay system for cytotoxicity, inhibitory activity of innate immune signalling and insecticidal activity. The cytotoxicity of the DDPs was evaluated using two cell lines, embryonic macrophage-derived DL1 cells[58]–[60] and larval blood cell-derived l(2)mbn cells, and their IC50 values are listed in Supplementary Table 23.
# DL1 cells = experiment: cytotoxicity in Drosophila DL1 cells; assay type: cell-based; details: DL1 cells; for IC50: Drosophila melanogaster, cytotoxicity
# Protocol: as §2
# [3] = cytotoxicity in Drosophila l(2)mbn cells; assay type: cell-based; details: Drosophila, l(2)mbn cells (larval blood cell-derived)
# Protocol: as §2
# l(2)mbn cells = experiment: cytotoxicity in Drosophila l(2)mbn cells; assay type: cell-based; details: for Luminescence Raw1: replicate 1; for Luminescence Raw2: replicate 2; for IC50: Drosophila melanogaster, cytotoxicity
# Protocol: as §2
# [4] = replicate 1, relative to DMSO 1%, read-out: % viability, viability 1
# [5] = replicate 2, relative to DMSO 1%, read-out: % viability, viability 2
# [6] = average of two replicates, read-out: IC50 Average
# [7] = replicate 1, read-out: IC50 (1)
# [8] = replicate 2, read-out: IC50 (2)
smiles,measurement,setting,value
CC(C)=CCC/C(C)=C/CC/C(C)=C/CC/C(C)=C/Cc1c(O)c(C)c(C)oc1=O [Compound 2],EC50,"[1]; average of numeric determinations, read-out: Avg. EC50",157 nM
same,Cytotoxicity,MAGI cells,>10 µM
C=C1CCC2C(C)(CCC=C(C)C)C(O)CCC2(C)C1Cc1c(OC)oc(CO)c(C)c1=O (stereo not shown) [Compound 12],cytotoxicity against the bulk of MCF-7 cells,MCF-7 cells,dose-dependent cytotoxicity
same,viability at 0.1 µM,"MCF-7 cells; Homo sapiens, MCF7, 72 h, MCF-7, 72 h, 0.1 µM (DMSO 0.002%), read-out: A490 (control =1) ave",72.1%
same,A490 ave,"MCF-7 cells; MCF-7, 72 h, 0.1 µM (DMSO 0.002%), control 1.064",0.767
same,A490 ave,"MCF-7 cells; MCF-7, 72 h, 1 µM (DMSO 0.02%), control 1.104",0.265
same,A490 ave,"MCF-7 cells; MCF-7, 72 h, 10 µM (DMSO 0.2%), control 1.049",0.189
same,viability at 0.04 µM,[2]; [4],96.8%
same,viability at 0.04 µM,[2]; [5],104%
same,viability at 0.2 µM,[2]; [4],86.4%
same,viability at 0.2 µM,[2]; [5],86.2%
same,viability at 1 µM,[2]; [4],8.66%
same,viability at 1 µM,[2]; [5],7.51%
same,viability at 4 µM,[2]; [4],5.97%
same,viability at 4 µM,[2]; [5],5.72%
same,viability at 10 µM,[2]; [4],6.32%
same,viability at 10 µM,[2]; [5],6.35%
same,viability at 20 µM,[2]; [4],3.83%
same,viability at 20 µM,[2]; [5],4.39%
same,Luminescence Raw1,"DL1 cells; 0.04 µM, replicate 1",1994873
same,Luminescence Raw2,"DL1 cells; 0.04 µM, replicate 2",2143826
same,Luminescence Raw1,"DL1 cells; 0.2 µM, replicate 1",1779203
same,Luminescence Raw2,"DL1 cells; 0.2 µM, replicate 2",1776317
same,Luminescence Raw1,"DL1 cells; 1 µM, replicate 1",178477
same,Luminescence Raw2,"DL1 cells; 1 µM, replicate 2",154679
same,Luminescence Raw1,"DL1 cells; 4 µM, replicate 1",122950
same,Luminescence Raw2,"DL1 cells; 4 µM, replicate 2",117902
same,Luminescence Raw1,"DL1 cells; 10 µM, replicate 1",130161
same,Luminescence Raw2,"DL1 cells; 10 µM, replicate 2",130882
same,Luminescence Raw1,"DL1 cells; 20 µM, replicate 1",78962
same,Luminescence Raw2,"DL1 cells; 20 µM, replicate 2",90500
same,IC50,DL1 cells; [6],342 nM
same,IC50,"DL1 cells; average±SEM, read-out: IC50",340 ± 30 nM
same,IC50,DL1 cells; [7],371 nM
same,IC50,DL1 cells; [8],314 nM
same,viability at 0.04 µM,[3]; [4],139%
same,viability at 0.04 µM,[3]; [5],135%
same,viability at 0.2 µM,[3]; [4],156%
same,viability at 0.2 µM,[3]; [5],139%
same,viability at 1 µM,[3]; [4],112%
same,viability at 1 µM,[3]; [5],136%
same,viability at 4 µM,[3]; [4],16.2%
same,viability at 4 µM,[3]; [5],12.9%
same,viability at 10 µM,[3]; [4],7.07%
same,viability at 10 µM,[3]; [5],6.84%
same,viability at 20 µM,[3]; [4],7.38%
same,viability at 20 µM,[3]; [5],6.31%
same,Luminescence Raw1,l(2)mbn cells; 0.04 µM,3578369
same,Luminescence Raw2,l(2)mbn cells; 0.04 µM,3458604
same,Luminescence Raw1,l(2)mbn cells; 0.2 µM,4007302
same,Luminescence Raw2,l(2)mbn cells; 0.2 µM,3578369
same,Luminescence Raw1,l(2)mbn cells; 1 µM,2865222
same,Luminescence Raw2,l(2)mbn cells; 1 µM,3493234
same,Luminescence Raw1,l(2)mbn cells; 4 µM,415037
same,Luminescence Raw2,l(2)mbn cells; 4 µM,331384
same,Luminescence Raw1,l(2)mbn cells; 10 µM,181387
same,Luminescence Raw2,l(2)mbn cells; 10 µM,175618
same,Luminescence Raw1,l(2)mbn cells; 20 µM,189320
same,Luminescence Raw2,l(2)mbn cells; 20 µM,161917
same,IC50,l(2)mbn cells; [6],3290 nM
same,IC50,"l(2)mbn cells; average±SEM, read-out: IC50",3290 ± 160 nM
same,IC50,l(2)mbn cells; [7],3130 nM
same,IC50,l(2)mbn cells; [8],3450 nM
same,EC50,"[1]; MAGI assay, read-out: EC50",< 200 nM
